Drawing on article PMC9294487 (eBioMedicine, 2022), this text covers IC50 and inhibition for two compounds.

Molecules are shown by their SMILES.

The target in experiment [1] is T1, E. multilocularis DNA damage-inducible 1 protein (EmuDdi1) (Echinococcus multilocularis, UniProt A0A068Y9Y4).
T1 sequence (A0A068Y9Y4 1-390): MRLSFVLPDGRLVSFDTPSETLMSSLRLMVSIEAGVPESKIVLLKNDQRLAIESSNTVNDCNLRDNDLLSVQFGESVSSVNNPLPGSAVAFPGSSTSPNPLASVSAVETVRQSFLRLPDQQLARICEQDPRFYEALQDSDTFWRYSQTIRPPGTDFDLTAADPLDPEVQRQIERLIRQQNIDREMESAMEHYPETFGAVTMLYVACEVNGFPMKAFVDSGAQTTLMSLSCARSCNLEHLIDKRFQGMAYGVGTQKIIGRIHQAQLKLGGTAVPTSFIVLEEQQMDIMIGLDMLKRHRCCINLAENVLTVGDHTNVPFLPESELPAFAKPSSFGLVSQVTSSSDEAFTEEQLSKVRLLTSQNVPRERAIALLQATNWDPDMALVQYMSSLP
Kind of experiment: fluorogenic aspartyl protease assay. The experiment is classed as biochemical.

Experiment [2] addresses T1, E. multilocularis DNA damage-inducible 1 protein (EmuDdi1). Kind of experiment: fluorogenic aspartyl protease assay, single concentration. The settings on record: read-out: % inhibition at 40 μM. The class given is biochemical.

For the compound `Cc1c(O)cccc1C(=O)N[C@@H](CSc1ccccc1)[C@H](O)CN1C[C@H]2CCCC[C@H]2C[C@H]1C(=O)NC(C)(C)C` [NFV, nelfinavir], it took 45.9 µM to reach half-maximal inhibition in experiment [1] (IC50).
Consider `CC(C)(C)NC(=O)[C@@H]1C[C@@H]2CCCC[C@@H]2CN1C[C@@H](O)[C@H](Cc1ccccc1)NC(=O)[C@H](CC(N)=O)NC(=O)c1ccc2ccccc2n1` [SQV, saquinavir], for which the inhibition (in general, how much of the control response was suppressed) at 40 µM in experiment [2] was about 40%.
